# In patent publication US20260334439A1, “BCAT2 INHIBITORS” (Agios Pharmaceuticals, Inc., priority 2023, published 2026):
# Legend:
# BCAT2 [1] = target: T1, BCAT2 (Homo sapiens, UniProt O15382); test: BCAT2 in vitro enzyme inhibition assay (hBCAT2, glutamate dehydrogenase/diaphorase/resazurin coupled fluorescence read); format: biochemical; conditions: hBCAT2, 1 h preincubation at 25° C., one hour reaction; average where tested multiple times
# T1 sequence (O15382 28-392): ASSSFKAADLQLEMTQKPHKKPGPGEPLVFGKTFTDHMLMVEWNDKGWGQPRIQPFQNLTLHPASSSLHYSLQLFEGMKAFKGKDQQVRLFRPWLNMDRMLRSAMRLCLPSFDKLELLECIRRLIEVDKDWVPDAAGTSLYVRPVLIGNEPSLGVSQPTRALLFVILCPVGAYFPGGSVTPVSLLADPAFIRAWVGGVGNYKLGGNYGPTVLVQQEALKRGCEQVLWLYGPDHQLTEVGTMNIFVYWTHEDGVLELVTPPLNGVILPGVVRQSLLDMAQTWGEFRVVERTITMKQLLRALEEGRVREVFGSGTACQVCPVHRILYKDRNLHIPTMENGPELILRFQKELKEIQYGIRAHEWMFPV
# Method in brief: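 Coupled GDH/diaphorase/resazurin fluorescence (Ex 540/Em 590) read after 1 h reaction at 25 °C, SDS-stopped; enzyme (0.33 μg/mL in mix) first preincubated 1 h with compound, 10-point 3-fold series from 100 μM final, Tris pH 8.0 buffer with NaCl, BSA; technical duplicates, averaged across tests.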
# BCAT2 [2] = target: T1, BCAT2; test: BCAT2 cell inhibition using engineered A549 cells (MUT KO, BCAT1 KO; 13C6-KMV formation by LC-MS/MS); format: cell-based; set-up: expressed endogenous BCAT2; endogenous in cells; host or cells: A549 cells, MUT knockout and BCAT1 knockout
# Description: Endogenous Methylmalonyl-CoA Mutase (MUT) and Branched Chain Aminotransferase 1 (BCAT1) in A549 cells was knocked out by CRISPR/CAS9 using the targeting system from TransOMIC Technologies. The following guide sequence was cloned into pCLIP-ALL-EFS-Blast vector to target human MUT: […] (SEQ ID NO: 35). The following guide sequence was cloned into pCLIP-ALL-EFS-Puro vector to target human BCAT1: […] (SEQ ID NO: 36). The resulting plasmids were co-transfected into 293T cells with VSV-G, P-PEX, and Fugene-6. Lentivirus was harvested and A549 cells were first transduced with lentivirus targeting MUT and polybrene. After genetic selection with blasticidin clonal selection was performed and validated via western blot analysis to confirm MUT was no longer expressed. These MUT KO cells were then transduced with lentivirus targeting BCAT1 and polybrene. After selection with puromycin clonal selection was performed and clones were validated via western blot analysis to confirm BCAT1 was no longer expressed in these cells. The result was an engineered A549 cell line that expressed endogenous BCAT2.
# For KMV cell assays, on day 1, 25,000 cells/100 μL EMEM (10% FBS) were seeded in each well of a 96-well plate. On day 2, medium was replaced with 50 μL fresh EMEM (10% dialyzed FBS) containing 2× the assay concentration of experimental compound. After 15 minutes, 50 μL of 800 uM ^15N,^13C6-Isoleucine in EMEM (10% dialyzed FBS) was added to each well and incubated for 24 hours. On day 3, 50 μL of media from each well was collected and transferred to another 96-well plate for ^13C6-3-Methyl-2-Oxopentanoic Acid (KMV) analysis via LC-MS/MS. In the remaining assay wells 50 μL of Promega Glo CTG reagent was added and luminescence was measured as a cell viability readout.
# For LC-MS/MS analysis 5 μL of cell assay media from each well was transferred to a 96-well plate and 45 μL of ACN:0.1% NaOH (50:50, v/v)^+0.20 nM d8-KMV was added and mixed on a shaker. 15 μL was transferred to a new 96-well plate and 15 μL of 10 mg/mL PFBHA solution was added and mixed on the shaker. The reaction was placed on ice for 30 minutes and quenched with 10 μL of ACN: Acetone (50:50, v/v) on a shaker. The resulting mixture was diluted with 100 μL of ACN:0.1% NaOH (50:50, v/v) on a shaker. 10 μL of sample were injected on the Shimadzu 20AD LC-MS/MS to quantify ^13C6-KMV.
# Where a compound was tested multiple times, the average value of the tests is reported.
SMILES,IC50 (BCAT2 [1]),"IC50 (BCAT2 [2]; engineered A549 cells, 24 hours, 13C6-KMV in media, average where tested multiple times, read-out: BCAT2 Cell Inhibition (IC50))",IC50 (BCAT2 [2]),"IC50 (BCAT2 [2]; read-out: BCAT2 Cell Inhibition (IC50), engineered A549 cells, 24 hours, 13C6-KMV in media, average where tested multiple times)"
O=C(N[C@@H]1C[C@@H](OC(F)F)C[C@H](n2c(-c3ccccc3F)nc3cnc(-c4ncn[nH]4)cc32)C1)c1cc(F)ccn1 (relative stereo) [compound 128],< 100 nM,100 to 500 nM,–,–
"COc1ccc(Cl)cc1C(=O)N[C@H]1CCC[C@@H](n2c(-c3ccccc3F)nc3cnc(-c4nc[nH]n4)cc32)C1 [Example 1, 5-chloro-N-((1S,3R)-3-(2-(2-fluorophenyl)-6-(1H-1,2,4-triazol-3-yl)-1H-imidazo[4,5-c]pyridin-1-yl)cyclohexyl)-2-methoxybenzamide]",< 100 nM,–,< 100 nM,–
"COc1cccc(F)c1C(=O)N[C@H]1CCC[C@@H](n2c(-c3ccccc3F)nc3cnc(-c4nc[nH]n4)cc32)C1 [Example 2, 2-fluoro-N-((1S,3R)-3-(2-(2-fluorophenyl)-6-(1H-1,2,4-triazol-3-yl)-1H-imidazo[4,5-c]pyridin-1-yl)cyclohexyl)-6-methoxybenzamide]",< 100 nM,–,–,> 1000 nM
"O=C(N[C@H]1CCC[C@@H](n2c(-c3ccccc3F)nc3cnc(-c4nc[nH]n4)cc32)C1)c1ccccc1Cl [Example 3, 2-chloro-N-((1S,3R)-3-(2-(2-fluorophenyl)-6-(1H-1,2,4-triazol-3-yl)-1H-imidazo[4,5-c]pyridin-1-yl)cyclohexyl)benzamide]",< 100 nM,–,100 to 500 nM,–
"O=C(N[C@H]1CCC[C@@H](n2c(-c3ccccc3F)nc3cnc(-c4nc[nH]n4)cc32)C1)c1cc(Cl)ccc1OC(F)(F)F [Example 4, 5-chloro-N-((1S,3R)-3-(2-(2-fluorophenyl)-6-(1H-1,2,4-triazol-3-yl)-1H-imidazo[4,5-c]pyridin-1-yl)cyclohexyl)-2-(trifluoromethoxy)benzamide]",< 100 nM,–,500 to 1000 nM,–
"CCOc1ccc(Cl)cc1C(=O)N[C@H]1CCC[C@@H](n2c(-c3ccccc3F)nc3cnc(-c4nc[nH]n4)cc32)C1 [Example 6, 5-chloro-2-ethoxy-N-((1S,3R)-3-(2-(2-fluorophenyl)-6-(1H-1,2,4-triazol-3-yl)-1H-imidazo[4,5-c]pyridin-1-yl)cyclohexyl)benzamide]",< 100 nM,–,< 100 nM,–
"O=C(N[C@H]1CCC[C@@H](n2c(-c3ccccc3F)nc3cnc(-c4nc[nH]n4)cc32)C1)c1cc(Cl)ccn1 [Example 7, 4-chloro-N-((1S,3R)-3-(2-(2-fluorophenyl)-6-(1H-1,2,4-triazol-3-yl)-1H-imidazo[4,5-c]pyridin-1-yl)cyclohexyl)picolinamide]",< 100 nM,–,< 100 nM,–
"O=C(N[C@H]1CCC[C@@H](n2c(-c3ccccc3F)nc3cnc(-c4nc[nH]n4)cc32)C1)c1ncccc1F [Example 11, 3-fluoro-N-((1S,3R)-3-(2-(2-fluorophenyl)-6-(1H-1,2,4-triazol-3-yl)-1H-imidazo[4,5-c]pyridin-1-yl)cyclohexyl)picolinamide]",< 100 nM,–,500 to 1000 nM,–
"O=C(N[C@H]1CCC[C@@H](n2c(-c3ccccc3F)nc3cnc(-c4nc[nH]n4)cc32)C1)c1cc(F)ccn1 [Example 14, 4-fluoro-N-((1S,3R)-3-(2-(2-fluorophenyl)-6-(1H-1,2,4-triazol-3-yl)-1H-imidazo[4,5-c]pyridin-1-yl)cyclohexyl)picolinamide]",< 100 nM,–,< 100 nM,–
"O=C(N[C@H]1CCC[C@@H](n2c(-c3ncccc3F)nc3cnc(-c4nc[nH]n4)cc32)C1)c1cc(F)ccn1 [Example 16, 4-fluoro-N-((1S,3R)-3-(2-(3-fluoropyridin-2-yl)-6-(1H-1,2,4-triazol-3-yl)-1H-imidazo[4,5-c]pyridin-1-yl)cyclohexyl)picolinamide]",< 100 nM,–,100 to 500 nM,–
COc1ccnc(C(=O)N[C@H]2CCC[C@@H](n3c(-c4ncccc4OC(F)F)nc4cnc(-c5nc[nH]n5)cc43)C2)c1 [compound 64],< 100 nM,–,–,–

# The remaining lines, values ahead:
IC50 (BCAT2 [1]),"IC50 (BCAT2 [2]; engineered A549 cells, 24 hours, 13C6-KMV in media, average where tested multiple times, read-out: BCAT2 Cell Inhibition (IC50))",IC50 (BCAT2 [2]),"IC50 (BCAT2 [2]; read-out: BCAT2 Cell Inhibition (IC50), engineered A549 cells, 24 hours, 13C6-KMV in media, average where tested multiple times)",SMILES
< 100 nM,–,< 100 nM,–,"CN1CC(NC(=O)c2cc(Cl)ccc2O)C[C@H](n2c(-c3ccccc3F)nc3cnc(-c4nc[nH]n4)cc32)C1 (stereo in doubt) [Example 143, 5-chloro-N-(5-(2-(2-fluorophenyl)-6-(1H-1,2,4-triazol-3-yl)-1H-imidazo[4,5-c]pyridin-1-yl)-1-methylpiperidin-3-yl)-2-hydroxybenzamide]"
< 100 nM,–,< 100 nM,–,"COc1ccccc1C(=O)N[C@H]1CCC[C@@H](n2c(-c3ccccc3F)nc3cnc(-c4nc[nH]n4)cc32)C1 [Example 5, N-((1S,3R)-3-(2-(2-fluorophenyl)-6-(1H-1,2,4-triazol-3-yl)-1H-imidazo[4,5-c]pyridin-1-yl)cyclohexyl)-2-methoxybenzamide]"
< 100 nM,–,500 to 1000 nM,–,"O=C(N[C@H]1CCC[C@@H](n2c(-c3ccccc3F)nc3cnc(-c4nc[nH]n4)cc32)C1)c1ncccc1Cl [Example 10, 3-chloro-N-((1S,3R)-3-(2-(2-fluorophenyl)-6-(1H-1,2,4-triazol-3-yl)-1H-imidazo[4,5-c]pyridin-1-yl)cyclohexyl)picolinamide]"
< 100 nM,–,< 100 nM,–,"O=C(N[C@H]1CCC[C@@H](n2c(-c3ccccc3F)nc3cnc(-c4nc[nH]n4)cc32)C1)c1ccc(Cl)cn1 [Example 13, 5-chloro-N-((1S,3R)-3-(2-(2-fluorophenyl)-6-(1H-1,2,4-triazol-3-yl)-1H-imidazo[4,5-c]pyridin-1-yl)cyclohexyl)picolinamide]"
< 100 nM,–,< 100 nM,–,"O=C(N[C@H]1CCC[C@@H](n2c(-c3ncccc3F)nc3cnc(-c4nc[nH]n4)cc32)C1)c1cc(Cl)ccn1 [Example 15, 4-chloro-N-((1S,3R)-3-(2-(3-fluoropyridin-2-yl)-6-(1H-1,2,4-triazol-3-yl)-1H-imidazo[4,5-c]pyridin-1-yl)cyclohexyl)picolinamide]"
–,–,< 100 nM,–,"O=C1c2cc(F)ccc2CN1[C@H]1CCC[C@@H](n2c(-c3ccccc3F)nc3cnc(-c4ncccc4F)cc32)[C@@H]1O [Example 190, 6-fluoro-2-((1S,2S,3R)-3-(2-(2-fluorophenyl)-6-(3-fluoropyridin-2-yl)-1H-imidazo[4,5-c]pyridin-1-yl)-2-hydroxycyclohexyl)isoindolin-1-one]"
< 100 nM,–,–,–,CC(C)Oc1ccc(Cl)cc1C(=O)N[C@H]1CCC[C@@H](n2c(-c3ncccc3OC(F)F)nc3cnc(-c4nc[nH]n4)cc32)C1 [compound 65]
< 100 nM,–,–,–,O=C(N[C@H]1CCC[C@@H](n2c(-c3ncccc3OC(F)F)nc3cnc(-c4nc[nH]n4)cc32)C1)c1cc(Cl)ccc1OC(F)F [compound 66]
< 100 nM,–,–,–,O=C(N[C@H]1CCC[C@@H](n2c(-c3ncccc3OC(F)F)nc3cnc(-c4ncn[nH]4)cc32)C1)c1cc(O)ccc1Cl [compound 97]
500 to 1000 nM,–,–,–,CN1C[C@@H](NC(=O)c2cc(F)ccn2)C[C@@H](n2c(-c3ccccc3OC(F)F)nc3cnc(-c4nc[nH]n4)cc32)C1 [compound 140]
100 to 500 nM,–,–,–,CN1C[C@@H](NC(=O)c2cc(Cl)ccn2)C[C@@H](n2c(-c3ccccc3OC(F)F)nc3cnc(-c4nc[nH]n4)cc32)C1 [compound 142]
